Data reported in ChEMBL document CHEMBL1201862, “PubChem BioAssay data set” (2004).
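Values below derive from 48-hour exposures of cells grown in 96-well plates, with endpoints linearly interpolated between the two concentrations bracketing the appropriate inhibition level. The concentration for 50% growth inhibition is given as GI50.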 The source made the active and inactive calls. Rule as the data show it: active = GI50 up to about 1.1 µM and inactive = higher.

What was measured:
Assay in all cases: NCI anticancer screen, dose series, 48 h
OVCAR-4 = tested on: OVCAR-4
SK-MEL-5 = tested on: SK-MEL-5
CAKI-1 = tested on: CAKI-1
786-0 = tested on: 786-0
SN12C = tested on: SN12C
KM-20L2 = tested on: KM-20L2
RXF 393 = tested on: RXF 393
A498 = tested on: A498
UO-31 = tested on: UO-31
LOX IMVI = tested on: LOX IMVI
OVCAR-5 = tested on: OVCAR-5
SK-MEL-28 = tested on: SK-MEL-28
NCI-H522 = tested on: NCI-H522
M19-MEL = tested on: M19-MEL
HCT-15 = tested on: HCT-15
HCC 2998 = tested on: HCC 2998
TK-10 = tested on: TK-10
HOP-92 = tested on: HOP-92
U-251 = tested on: U-251
DLD-1 = tested on: DLD-1
COLO 205 = tested on: COLO 205
XF498 = tested on: XF498
LXFL 529 = tested on: LXFL 529
M14 = tested on: M14
SK-MEL-2 = tested on: SK-MEL-2
Malme-3M = tested on: Malme-3M
ACHN = tested on: ACHN
SR = tested on: SR
SNB-75 = tested on: SNB-75
HOP-62 = tested on: HOP-62
SW-620 = tested on: SW-620
NCI-H226 = tested on: NCI-H226
A549 = tested on: A549
SF-295 = tested on: SF-295
MOLT-4 = tested on: MOLT-4
SF-539 = tested on: SF-539
HOP-18 = tested on: HOP-18
HL-60 = tested on: HL-60
SK-OV-3 = tested on: SK-OV-3
SNB-78 = tested on: SNB-78
HCT-116 = tested on: HCT-116
DMS-273 = tested on: DMS-273
UACC-62 = tested on: UACC-62
HT-29 = tested on: HT-29
OVCAR-8 = tested on: OVCAR-8
SF-268 = tested on: SF-268
NCI-H460 = tested on: NCI-H460
SNB-19 = tested on: SNB-19
OVCAR-3 = tested on: OVCAR-3
DMS-114 = tested on: DMS-114
NCI-H23 = tested on: NCI-H23
EKVX = tested on: EKVX
IGROV-1 = tested on: IGROV-1
RPMI-8226 = tested on: RPMI-8226
KM12 = tested on: KM12
RXF 631 = tested on: RXF 631
UACC-257 = tested on: UACC-257
CCRF-CEM = tested on: CCRF-CEM
K562 = tested on: K562

Structure (SMILES): CC(C)NC(=O)CCN(C(=O)O)S(=O)(=O)c1ccc(NC(=O)c2ccccc2)cc1
- GI50 (OVCAR-4): > 100 µM (inactive)
- GI50 (SK-MEL-5): > 100 µM (inactive)
- GI50 (CAKI-1): > 100 µM (inactive)
- GI50 (786-0): > 79.6 µM (inactive)
- GI50 (SN12C): > 100 µM (inactive)
- GI50 (KM-20L2): > 100 µM (inactive)
- GI50 (RXF 393): > 100 µM (inactive)
- GI50 (A498): > 100 µM (inactive)
- GI50 (UO-31): > 100 µM (inactive)
- GI50 (LOX IMVI): 39.9 µM (inactive)
- GI50 (OVCAR-5): > 100 µM (inactive)
- GI50 (SK-MEL-28): > 100 µM (inactive)
- GI50 (NCI-H522): > 100 µM (inactive)
- GI50 (M19-MEL): > 53.3 µM (inactive)
- GI50 (HCT-15): > 42.2 µM
- GI50 (HCC 2998): > 100 µM (inactive)
- GI50 (TK-10): > 100 µM (inactive)
- GI50 (HOP-92): > 100 µM (inactive)
- GI50 (U-251): 15.6 µM (inactive)
- GI50 (DLD-1): > 41.6 µM (inactive)
- GI50 (COLO 205): > 40.6 µM (inactive)
- GI50 (XF498): > 100 µM (inactive)
- GI50 (LXFL 529): > 93.8 µM (inactive)
- GI50 (M14): > 100 µM (inactive)
- GI50 (SK-MEL-2): > 100 µM (inactive)
- GI50 (Malme-3M): > 100 µM (inactive)
- GI50 (ACHN): > 81.3 µM (inactive)
- GI50 (SR): > 52.8 µM (inactive)
- GI50 (SNB-75): > 100 µM (inactive)
- GI50 (HOP-62): > 100 µM (inactive)
- GI50 (SW-620): 27.7 µM (inactive)
- GI50 (NCI-H226): > 100 µM (inactive)
- GI50 (A549): > 50.1 µM (inactive)
- GI50 (SF-295): > 100 µM (inactive)
- GI50 (MOLT-4): > 41.2 µM (inactive)
- GI50 (SF-539): 24.6 µM (inactive)
- GI50 (HOP-18): > 100 µM (inactive)
- GI50 (HL-60): > 48.8 µM (inactive)
- GI50 (SK-OV-3): > 100 µM (inactive)
- GI50 (SNB-78): > 100 µM (inactive)
- GI50 (HCT-116): > 39.7 µM (inactive)
- GI50 (DMS-273): > 42.7 µM (inactive)
- GI50 (UACC-62): > 45.5 µM (inactive)
- GI50 (HT-29): > 58.1 µM (inactive)
- GI50 (OVCAR-8): > 54.5 µM (inactive)
- GI50 (SF-268): > 54.5 µM (inactive)
- GI50 (NCI-H460): > 43.2 µM (inactive)
- GI50 (SNB-19): > 100 µM (inactive)
- GI50 (OVCAR-3): > 100 µM (inactive)
- GI50 (DMS-114): > 39.4 µM (inactive)
- GI50 (NCI-H23): > 100 µM (inactive)
- GI50 (EKVX): > 100 µM (inactive)
- GI50 (IGROV-1): > 100 µM (inactive)
- GI50 (RPMI-8226): 34.8 µM (inactive)
- GI50 (KM12): > 65.6 µM (inactive)
- GI50 (RXF 631): > 100 µM (inactive)
- GI50 (UACC-257): > 51.9 µM (inactive)
- GI50 (CCRF-CEM): > 43.9 µM (inactive)
- GI50 (K562): > 43.7 µM (inactive)
